# Legend:
# [1] = system: Human immunodeficiency virus 1; experiment: Antiviral activity against HIV1 bearing VSV glycoprotein infected in human MT2 cells assessed as inhibition of viral replication after 48 hrs by luciferase reporter gene assay; format: functional, organism-based; conditions: Human immunodeficiency virus 1, MT2, 48 h
# [2] = Cytotoxicity against human MT2 cells by MTT assay; format: cell-based
# [3] = system: Human immunodeficiency virus 1; experiment: Antiviral activity against HIV1 NL4-3 with reverse transcriptase K101E mutant infected in human TZM-bl cells assessed as inhibition of viral replication after 4 days by p24 based ELISA; format: functional, organism-based; conditions: Human immunodeficiency virus 1, NL4-3, TZM-bl, 96 h
# [4] = system: Human immunodeficiency virus 1; experiment: Antiviral activity against reverse transcriptase multidrug-resistant HIV1 infected in human TZM-bl cells assessed as inhibition of viral replication after 4 days by p24 based ELISA; format: functional, organism-based; conditions: Human immunodeficiency virus 1, TZM-bl, 96 h
# [5] = system: Human immunodeficiency virus 1; experiment: Ratio of compound IC50 to zidovudine IC50 for HIV1 bearing VSV glycoprotein infected in human MT2 cells assessed as inhibition of viral replication after 48 hrs by luciferase reporter gene assay; format: functional
# [6] = system: Human immunodeficiency virus 1; experiment: Antiviral activity against wild type HIV1 NL4-3 infected in human TZM-bl cells assessed as inhibition of viral replication after 4 days by p24 based ELISA; format: functional, organism-based; conditions: Human immunodeficiency virus 1, NL4-3, TZM-bl, 96 h
# [7] = system: Human immunodeficiency virus 1; experiment: Ratio of compound IC50 to 1-(20-deoxy-40-C-ethynyl-beta-D-arabinofuranosyl)-thymine IC50 for HIV1 bearing VSV glycoprotein infected in human MT2 cells assessed as inhibition of viral replication after 48 hrs by luciferase reporter gene assay; format: functional
SMILES,IC50 [1],CC50 [2],IC50 [3],IC50 [4],Ratio IC50 [5],IC50 [6],Ratio IC50 [7]
C#C[C@]1(CO)O[C@@H](n2ccc(=O)[nH]c2=O)[C@@H](F)[C@@H]1O,6530 nM,> 10000 nM,–,–,–,–,–
C#C[C@]1(CO)O[C@@H](n2ccc(N)nc2=O)[C@@H](F)[C@@H]1O,1.34 nM,> 10000 nM,1.52 nM,1.45 nM,35,0.46 nM,–
C#C[C@]1(CO)O[C@@H](n2cc(C)c(=O)[nH]c2=O)[C@@H](F)[C@@H]1O,86 nM,> 10000 nM,–,–,–,–,10
Cc1cn([C@H]2C[C@H](N=[N+]=[N-])[C@@H](CO)O2)c(=O)[nH]c1=O [ZIDOVUDINE],47 nM,> 200000 nM,–,–,–,–,–

# From ChEMBL document CHEMBL1177822, “Synthesis and anti-HIV activity of 2'-deoxy-2'-fluoro-4'-C-ethynyl nucleoside analogs” (Bioorg Med Chem Lett, 2010)
